# Results taken from patent EP0411503B1, “Process for identifying and synthesizing binding sites of interacting proteins” (priority 1989, dated 1999).
# pKd: −log10 of the molar value. Where no end group is shown, it is not given here.
# Tested on: peptide HIV-1 gp120
# Experiment: Affinity HPLC of CD4 peptide on immobilized HIV-1 gp120 peptide
# Format: binding
# Source text: The existence of an interaction ability among complementary peptides was verified by affinity HPLC (G. Fassina and I. M. Chaiken, Advances in Chromatogr. 27:250, 1987).
# The peptide HIV-1 gp120 was immobilized on a solid support (Eupergit^R C 30n, 800 µmoles/g load capability by controlled density) according to the conditions reported in literature (G. Fassina et al., J. Chromatogr. 376:87, 1986) and an HPLC glass column (80∗ 6.6 mm ID) was loaded with the peptide derivatized support to prepare an affinity column. The total amount of immobilized peptide in the column is 260 µg, as checked from the amino acid analysis of the support. Small amounts (1-10 µg) of CD4 peptide were eluted isochrathically on the column equilibrated by a flow rate of 1.0 ml/min with 0.1 M NH4Ac, pH 5.7.
# The eluted solution was analysed by monitoring the optic absorbance.
# The extension of the delay on column, which indicates the interaction between the peptides, was correlated to the dissociation constant Km/p of the binding according to the equation: 1/(V-Vo ) = Km/p /MT +[P]T /MT [formula] where V is the elution volume of the eluted peptide, Vo is void volume of the column, MT is the total immobilized peptide, [P]T is the eluted peptide, and Km/p is the dissociation constant of the binding. […]
Substance,binding in competitive binding assay (1 mM of HIV-1 gp120 added to the buffer),"pKd (immobilized HIV-1 gp120 peptide, 0.1 M NH4Ac, pH 5.7, extrapolation at concentration zero of peptide, read-out: dissociation constant)"
NH2-APPISGOIRSS-COOH [HIV-1 gp120],completely inhibited,–
"GPSKLNDRADS [peptide CD4, NH2-GPSKLNDRADSCOOH]",–,4.10
